The test system of this experiment is monoclonal antibody 2F5. The experiment can be described thus: Immuno-complex formation of constrained peptides with monoclonal antibody 2F5. Type of experiment: binding, human. The following applies: subsequently co-crystallized with the Fab′ fragment.

Square brackets hold non-standard residues; d marks the D form. Ends that are not written are not given here. Dap = NC[C@H](N)C(=O)O

monoclonal antibody 2F5, sequence (as listed by the source, other chains not shown): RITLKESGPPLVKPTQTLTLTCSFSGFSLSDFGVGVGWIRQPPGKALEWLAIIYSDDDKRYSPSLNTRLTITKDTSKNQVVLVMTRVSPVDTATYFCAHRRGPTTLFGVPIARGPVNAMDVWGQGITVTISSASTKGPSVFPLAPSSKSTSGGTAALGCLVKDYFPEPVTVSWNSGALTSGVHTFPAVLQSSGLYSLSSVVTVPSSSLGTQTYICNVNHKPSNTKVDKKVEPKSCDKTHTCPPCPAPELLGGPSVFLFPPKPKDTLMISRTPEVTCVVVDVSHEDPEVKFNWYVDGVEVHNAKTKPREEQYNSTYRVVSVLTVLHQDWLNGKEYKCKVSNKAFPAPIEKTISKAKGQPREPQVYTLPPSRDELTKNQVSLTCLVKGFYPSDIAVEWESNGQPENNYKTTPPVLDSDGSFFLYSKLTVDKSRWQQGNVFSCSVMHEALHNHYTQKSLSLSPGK

For the substance E[Dap]DKWES [CLP-1309], the “formation of an immuno-complex with monoclonal antibody 2F5” value is reported as “capable of forming an immuno-complex”.
Next, ECDKWCS [CLP-634]: “capable of forming an immuno-complex”.

(Values after patent US7342090B1, “Fab-epitope complex from the HIV-1 cross-neutralizing monoclonal antibody 2F5” (University of Toronto, priority 1999, dated 2008).)
